Reference: patent US20100063026A1, “ANTIBACTERIAL QUINOLINE DERIVATIVES” (priority 2007, published 2010)
Converted amounts (≈) assume the structure as drawn.

What was measured:
[1] = tested on: Staphylococcus aureus (ATCC29213); test: Microtitre plate IC90 determination against non-mycobacterial strains: S. aureus; format: cell-based; details: 90% inhibitory concentration for bacterial growth, 37° C., resazurin fluorescence; for IC90 STA 1 B29213: 24 hours; for IC90: Staphylococcus aureus, ATCC29213, 24 h, read-out: IC90 STA 1 B29213
Description: (§1) The bacteria used in this study were grown overnight in flasks containing 100 ml Mueller-Hinton Broth (Becton Dickinson-cat. no. 275730) in sterile de-ionized water, with shaking, at 37° C. Stocks (0.5 ml/tube) were stored at -70° C. until use. Bacteria titrations were performed in microtiter plates to detect the TCID50, in which the TCID50 represents the dilution that gives rise to bacterial growth in 50% of inoculated cultures. In general, an inoculum level of approximately 100 TCID50 was used for susceptibility testing. […] Therefore resazurin (0.6 mg/ml) was added in a volume of 20 μl to all wells 3 hours after inoculation, and the plates were re-incubated overnight. A change in colour from blue to pink indicated the growth of bacteria.

[2] = tested on: Streptococcus pneumoniae (ATCC6305); test: Microtitre plate IC90 determination against non-mycobacterial strains: S. pneumoniae; format: cell-based; details: 90% inhibitory concentration for bacterial growth, 37° C., resazurin fluorescence; for IC90 SPN 1 6305: 24 hours; for IC90: Streptococcus pneumoniae, ATCC6305, 24 h, read-out: IC90 SPN 1 6305
Description: as §1

M. smegmatis ATCC607 = test: In-vitro anti-bacterial activity against strain M. smegmatis ATCC607; details: for IC90 MSM 1 ATCC607: 90% inhibitory concentration for bacterial growth, 48 hours, 37° C., Alamar Blue fluorescence; for IC90: Mycolicibacterium smegmatis, ATCC607, 48 h, read-out: IC90 MSM 1 ATCC607, 90% inhibitory concentration for bacterial growth, 37° C., Alamar Blue fluorescence
Description: Flat-bottom, sterile 96-well plastic microtiter plates were filled with 180 μl of sterile deionized water, supplemented with 0.25% BSA. Subsequently, stock solutions (7.8× final test concentration) of compounds were added in 45 μl volumes to a series of duplicate wells in column 2 so as to allow evaluation of their effects on bacterial growth. Serial five-fold dilutions (45 μl in 180 μl) were made directly in the microtiter plates from column 2 to 11 using a customised robot system (Zymark Corp., Hopkinton, Mass.). Pipette tips were changed after every 3 dilutions to minimize pipetting errors with high hydrophobic compounds. Untreated control samples with (column 1) and without (column 12) inoculum were included in each microtiter plate. Approximately 250 CFU per well of bacteria inoculum, in a volume of 100 μl in 2.8× Mueller-Hinton broth medium, was added to the rows A to H, except column 12. The same volume of broth medium without inoculum was added to column 12 in row A to H. The cultures were incubated at 37° C. for 48 hours in a humidified 5% CO2 atmosphere (incubator with open air valve and continuous ventilation). At the end of incubation, two days after inoculation, the bacterial growth was quantitated fluorometrically. Therefore Alamar Blue (10×) was added to all wells in a volume of 20 μl and plates were incubated for another 2 hours at 50° C.
The fluorescence was read in a computer-controlled fluorometer (Cytofluor, Biosearch) at an excitation wavelength of 530 nm and an emission wavelength of 590 nm (gain 30). The percentage growth inhibition achieved by the compounds was calculated according to standard methods and expressed as IC90 (μg/ml) which defines the 90% inhibitory concentration for bacterial growth.

[3] = tested on: Mycobacterium tuberculosis (strain H37RV); test: In-vitro method for testing compounds against M. tuberculosis; format: cell-based; details: 90% inhibitory concentration for bacterial growth, 7 days, 37° C., Resazurin fluorescence; for IC90: Mycobacterium tuberculosis, H37RV, 168 h, read-out: IC90 MTB 1 H37RV

Compound	IC90 STA 1 B29213 [1] [µg/mL]	IC90 SPN 1 6305 [2] [µg/mL]	melting point [°C]	IC90 MSM 1 ATCC607 (M. smegmatis ATCC607) [µg/mL]	IC90 [3] [µg/mL]	IC90 [2] [µg/mL]	IC90 MTB 1 H37RV [3] [µg/mL]	IC90 [1] [µg/mL]	IC90 (M. smegmatis ATCC607) [µg/mL]
COc1nc2ccc(Br)cc2cc1C(c1ccccc1)C(O)(CCCCN1CCC(N2CCCCC2)CC1)CCc1ccccc1 (single isomer, unassigned) [Compound 11]	10.9 (≈ 15.9 µM)	10.9 (≈ 15.9 µM)	164	12.2 (≈ 17.8 µM)					
COc1nc2ccc(Br)cc2cc1C(c1ccccc1)C(O)(CCCCN1CC2CC1CN2Cc1ccccc1)c1ccc2ccccc2c1 (centres unmarked) [Compound 23]	2.3 (≈ 3.16 µM)	0.2 (≈ 0.275 µM)		0.5 (≈ 0.688 µM)	57.7 (≈ 79.4 µM)				
CN1CCCN(CCCCC(O)(c2ccc3ccccc3c2)C(c2ccccc2)c2cc3cc(Br)ccc3[nH]c2=O)CC1 (single isomer, unassigned) [Compound 50]	10.1 (≈ 15.8 µM)		210	2.3 (≈ 3.6 µM)		4.5 (≈ 7.05 µM)			
COc1nc2ccc(Br)cc2cc1C(c1ccccc1)C(O)(CCCCN(C)C(=N)N)c1ccccc1 (single isomer, unassigned) [Compound 2]	1.8 (≈ 3.21 µM)	2.2 (≈ 3.92 µM)		1.8 (≈ 3.21 µM)			2.5 (≈ 4.45 µM)		
COc1nc2ccc(Br)cc2cc1C(c1ccccc1)C(O)(CCCCN(C)C(=N)N)c1ccccc1 (single isomer, unassigned) [Compound 1]					4 (≈ 7.12 µM)	2.2 (≈ 3.92 µM)		2 (≈ 3.56 µM)	1.8 (≈ 3.21 µM)
COc1nc2ccc(Br)cc2cc1C(c1ccccc1)C(O)(CCCCN1CC2CC1CN2CCc1ccccc1)c1ccc2ccccc2c1 (single isomer, unassigned) [Compound 25]	2.3 (≈ 3.1 µM)	0.5 (≈ 0.675 µM)	137	1.7 (≈ 2.29 µM)					
COc1nc2ccc(Br)cc2cc1C(c1ccccc1)C(O)(CCCCN1CC2CC1CN2Cc1ccccc1)c1ccccc1 (single isomer, unassigned) [Compound 48]						0.5 (≈ 0.739 µM)		2.1 (≈ 3.1 µM)	2.4 (≈ 3.55 µM)
COc1nc2ccc(Br)cc2cc1C(c1ccccc1)C(O)(CCCCN1CC2CC1CN2CCc1ccccc1)c1ccc2ccccc2c1 (single isomer, unassigned) [Compound 24]	11.7 (≈ 15.8 µM)	2.1 (≈ 2.83 µM)							2.3 (≈ 3.1 µM)
COc1nc2ccc(Br)cc2cc1C(c1ccccc1)C(O)(CCCCNC1CC2CCC1C2)c1ccc2ccccc2c1 (centres unmarked) [Compound 39]				1.8 (≈ 2.77 µM)		0.4 (≈ 0.616 µM)		1.8 (≈ 2.77 µM)	
COc1nc2ccc(Br)cc2cc1C(c1ccccc1)C(O)(CCCCNC1CC2CCC1C2)c1ccc2ccccc2c1 (centres unmarked) [Compound 40]	1.6 (≈ 2.46 µM)	0.5 (≈ 0.77 µM)		0.4 (≈ 0.616 µM)					
COc1nc2ccc(Br)cc2cc1C(c1ccccc1)C(O)(CCCCN1CCN(C2CCN(Cc3ccccc3)C2)CC1)c1ccc2ccccc2c1 (single isomer, unassigned) [Compound 31]	12.4 (≈ 15.8 µM)	15.6 (≈ 19.9 µM)		4.4 (≈ 5.61 µM)					
COc1nc2ccc(Br)cc2cc1C(c1ccccc1)C(O)(CCCCN1CCCNCC1)c1ccccc1 (single isomer, unassigned) [Compound 47]						0.9 (≈ 1.53 µM)		1.9 (≈ 3.23 µM)	1.9 (≈ 3.23 µM)
COc1nc2ccc(Br)cc2cc1C(c1ccccc1)C(O)(CCCCNC1CC2CCC1C2)c1ccc2ccccc2c1 (single isomer, unassigned) [Compound 38]						2.6 (≈ 4 µM)		10.3 (≈ 15.9 µM)	2.1 (≈ 3.23 µM)
COc1nc2ccc(Br)cc2cc1C(c1ccccc1)C(O)(CCCCN1CCC(N2CCCCC2)CC1)c1ccc2ccccc2c1 (single isomer, unassigned) [Compound 29]	5.0 (≈ 7.07 µM)	0.8 (≈ 1.13 µM)	177	2.2 (≈ 3.11 µM)					
COc1nc2ccc(Br)cc2cc1C(c1ccccc1)C(O)(CCCCN1CCCN(C)CC1)c1ccc2ccccc2c1 (centres unmarked) [Compound 34b]		2.1 (≈ 3.22 µM)		2.1 (≈ 3.22 µM)				2.1 (≈ 3.22 µM)	
COc1nc2ccc(Br)cc2cc1C(c1ccccc1)C(O)(CCCCN1CC2CC1CN2Cc1ccccc1)CCCc1ccccc1 (single isomer, unassigned) [Compound 15]	11.4 (≈ 15.9 µM)	2.6 (≈ 3.62 µM)		4.0 (≈ 5.56 µM)					
COc1nc2ccc(Br)cc2cc1C(c1ccccc1)C(O)(CCCCN(C)C1CCN(C)CC1)c1ccccc1 (single isomer, unassigned) [Compound 4]						2 (≈ 3.24 µM)		9.8 (≈ 15.9 µM)	2 (≈ 3.24 µM)
COc1nc2ccc(Br)cc2cc1C(c1ccccc1)C(O)(CCCCN1CCC(N2CCCCC2)CC1)c1ccc2ccccc2c1 (single isomer, unassigned) [Compound 28]	2.2 (≈ 3.11 µM)	2.8 (≈ 3.96 µM)							2.5 (≈ 3.54 µM)
COc1nc2ccc(Br)cc2cc1C(c1ccccc1)C(O)(CCCCN(C)CCc1ccccn1)c1ccccc1 (centres unmarked) [Compound 8]	2.0 (≈ 3.2 µM)	2.2 (≈ 3.52 µM)		2.0 (≈ 3.2 µM)					
COc1nc2ccc(Br)cc2cc1C(c1ccc(Cl)cc1)C(O)(CCCCN1CC2CC1CN2Cc1ccccc1)c1ccc2ccccc2c1 (single isomer, unassigned) [Compound 36]	53.9 (≈ 70.8 µM)					0.9 (≈ 1.18 µM)			2.7 (≈ 3.55 µM)
COc1nc2ccccc2cc1C(c1ccccc1)C(O)(CCCCN1CC2CC1CN2)c1ccc2ccccc2c1 (single isomer, unassigned) [Compound 19]	1.8 (≈ 3.23 µM)	2.2 (≈ 3.94 µM)		1.6 (≈ 2.87 µM)					
COc1nc2ccc(Br)cc2cc1C(c1ccccc1)C(O)(CCCCN1CCN(C(C)=O)CC1)c1ccccc1 (single isomer, unassigned) [Compound 3]						9.8 (≈ 15.9 µM)		61.7 (≈ 100 µM)	4.9 (≈ 7.95 µM)
COc1nc2ccc(Br)cc2cc1C(c1ccccc1)C(O)(CCCCN1CCN(C2CCN(Cc3ccccc3)C2)CC1)c1ccc2ccccc2c1 (single isomer, unassigned) [Compound 32]	2.5 (≈ 3.19 µM)	2.5 (≈ 3.19 µM)		5.6 (≈ 7.14 µM)					
COc1nc2ccccc2cc1C(c1ccccc1)C(O)(CCCCN1CC2CC1CN2)c1ccc2ccccc2c1 (single isomer, unassigned) [Compound 18]						1.8 (≈ 3.23 µM)		1.8 (≈ 3.23 µM)	1.8 (≈ 3.23 µM)
COc1nc2ccc(Br)cc2cc1C(c1ccccc1)C(O)(CCCCN1CCCN(C)CC1)c1ccc2ccccc2c1 (centres unmarked) [Compound 35a]	2.1 (≈ 3.22 µM)	0.4 (≈ 0.613 µM)		0.9 (≈ 1.38 µM)					
COc1nc2ccc(Br)cc2cc1C(c1ccccc1)C(O)(CCCCN(C)CCc1ccccn1)c1ccccc1 (centres unmarked) [Compound 9]	2.0 (≈ 3.2 µM)	2.2 (≈ 3.52 µM)		2.0 (≈ 3.2 µM)					
COc1nc2ccc(Br)cc2cc1C(c1ccccc1)C(O)(CCCCN1CCCNCC1)c1ccc2ccccc2c1 (single isomer, unassigned) [Compound 33]			119			0.5 (≈ 0.783 µM)		2 (≈ 3.13 µM)	0.4 (≈ 0.626 µM)
COc1nc2ccc(Br)cc2cc1C(c1ccccc1)C(O)(CCCCN1CCN(C2CCN(Cc3ccccc3)C2)CC1)c1ccc2ccccc2c1 (single isomer, unassigned) [Compound 30b]	62 (≈ 79.1 µM)	31 (≈ 39.5 µM)		31 (≈ 39.5 µM)					
